The record followed here is patent publication US7101878B1 (Agouron Pharmaceuticals, Inc., priority 1998, dated 2006).

In this assay the target is T1, human GnRH receptor (Homo sapiens, UniProt P30968).
T1 construct: expressed in transfected cells; host or cells: HEK 293 (hGnRH-R/293, from Dr. Stuart Sealfon)
T1 sequence (P30968 1-328): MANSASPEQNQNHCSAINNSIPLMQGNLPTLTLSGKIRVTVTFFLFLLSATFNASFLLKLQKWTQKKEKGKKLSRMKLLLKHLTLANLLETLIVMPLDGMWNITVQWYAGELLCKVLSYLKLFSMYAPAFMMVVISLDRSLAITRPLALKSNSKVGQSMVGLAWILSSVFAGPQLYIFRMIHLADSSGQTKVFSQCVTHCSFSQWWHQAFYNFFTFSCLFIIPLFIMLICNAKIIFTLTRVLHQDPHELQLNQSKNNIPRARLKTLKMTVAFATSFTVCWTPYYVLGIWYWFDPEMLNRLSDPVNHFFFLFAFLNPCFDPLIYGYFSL
The assay can be described thus: Radioligand binding, 125I-GnRH-A displacement, membranes of HEK 293 cells with human GnRH receptor. How it is done: All compounds were diluted in 1% DMSO (final assay concentration) in binding assay buffer. […] Reactions were terminated by rapid filtration onto 96-well Packard GF/C filters soaked in 0.1% polyethyleneimine. Filters were washed three times with PBS buffer, dried and counted on a Packard Topcount by liquid scintillation counting.
Assay conditions were identical for assessing compound activities at other species. […] IC50 values for control peptides and test compounds were calculated utilizing GraphPad Prism™ software.
Crude compounds were tested using the competitive radioligand binding assay described above.
The reaction mixture was vortexed and incubated for 1 min at room temperature. After one min, the mixture was vortexed and allowed to incubate for an additional minute. 2 ml of 0.5 M acetic acid/1% BSA was added to the reaction tube and the mixture was added to a C18 Sep-Pak cartridge. The cartridge was washed with subsequent washes of 5 ml H2O and 5 ml 0.5M acetic acid and then eluted with 5×1 ml of 60% CH3CN/40% 0.5M acetic acid. The eluate was diluted with 3× volume of HPLC buffer A (0.1% TFA in H2O) and loaded onto a C18 column. The iodinated product was eluted over 20-25 min with a gradient of 25-100% CH3CN containing 0.1% TFA. The radioactive fractions (750 ed/fraction) are collected into clean polypropylene tubes containing 100 μl of 10% BSA. Fractions were assessed for biological activity by radioligand binding.
S%R is the substrate remaining.

Where [1] appears, read: 1 uM, read-out: % Inhib. @ 1 uM hGnRH.
Where [2] appears, read: 1 h, repeat of % Inhib. at 1 uM, read-out: Repeats @ 1 uM hGnRH.

Structures are written as SMILES. Like-named read-outs stand apart in the source and are kept apart here.

Turning to `Cc1cc2c(cc1Cc1ccc(C(=O)NC(C)(C)Cc3ccccc3)o1)C(C)(C)CCC2(C)C`, the inhibition at 1 µM under setting [1] is 38% and the inhibition at 1 µM under setting [2] was determined as 39%.

As to `Cc1cc2c(cc1Cc1ccc(C(=O)N(C)C(C)Cc3ccccc3)o1)C(C)(C)CCC2(C)C` (centres unmarked), the inhibition at 1 µM under setting [1] came to 15% and the inhibition at 1 µM under setting [2] is 17%.

Regarding `Cc1cc2c(cc1Cc1ccc(C(=O)NC(C)(C)Cc3ccc(F)cc3)o1)C(C)(C)CCC2(C)C`, the inhibition at 1 µM runs as follows: under setting [1], 21%; under setting [2], 22%.

With `Cc1cc2c(cc1Cc1ccc(C(=O)NC(C)(C)c3ccccc3)o1)C(C)(C)CCC2(C)C`, the inhibition at 1 µM stood at 28% under setting [1] and 45% under setting [2].

Consider `Cc1cc2c(cc1Cc1ccc(C(=O)N(C)CC(O)c3ccccc3)o1)C(C)(C)CCC2(C)C` (centres unmarked), for which the inhibition at 1 µM is 20% under setting [1] and 22% under setting [2].

Take `Cc1cc2c(cc1Cc1ccc(C(=O)NC(CO)CSCc3ccccc3)o1)C(C)(C)CCC2(C)C` (centres unmarked): the inhibition at 1 µM worked out at 16% under setting [1] and 7% under setting [2].

Regarding `Cc1cc2c(cc1Cc1ccc(C(=O)N(C)CC(O)c3cccc(O)c3)o1)C(C)(C)CCC2(C)C` (centres unmarked), the inhibition at 1 µM under setting [1] was -2% and the inhibition at 1 µM under setting [2] is 9%.

As to `Cc1cc2c(cc1Cc1ccc(C(=O)NC(C#N)c3ccc(F)cc3)o1)C(C)(C)CCC2(C)C` (centres unmarked), the inhibition at 1 µM is, setting by setting: under setting [1], 2%; under setting [2], 4%.

Regarding `Cc1cc2c(cc1Cc1ccc(C(=O)NCc3ccc(F)cc3Cl)o1)C(C)(C)CCC2(C)C`, the inhibition at 1 µM under setting [1] was found to be 27% and the inhibition at 1 µM under setting [2] worked out at 48%.

For the molecule `Cc1cc2c(cc1Cc1ccc(C(=O)NCC(O)c3ccc(O)c(O)c3)o1)C(C)(C)CCC2(C)C` (centres unmarked), the inhibition at 1 µM runs as follows: under setting [1], -26%; under setting [2], 11%.

As to `Cc1cc2c(cc1Cc1ccc(C(=O)NC(CCO)c3ccccc3)o1)C(C)(C)CCC2(C)C` (centres unmarked), the inhibition at 1 µM is, setting by setting: under setting [1], 17%; under setting [2], 23%.

In the case of `Cc1cc2c(cc1Cc1ccc(C(=O)N3CCN(c4cccc(O)c4)CC3)o1)C(C)(C)CCC2(C)C`, the inhibition at 1 µM reads like this: under setting [1], -1%; under setting [2], -3%.

Take `CCN(CCc1ccccn1)C(=O)c1ccc(Cc2cc3c(cc2C)C(C)(C)CCC3(C)C)o1`: the inhibition at 1 µM by setting is: under setting [1], 12%; under setting [2], 8%.

Turning to `Cc1cc2c(cc1Cc1ccc(C(=O)NC(c3ccccc3)c3ccc(Cl)cc3)o1)C(C)(C)CCC2(C)C` (centres unmarked), the inhibition at 1 µM by setting is: under setting [1], -8%; under setting [2], 3%.

In the case of `Cc1cc2c(cc1Cc1ccc(C(=O)NCc3c(CO)cnc(C)c3O)o1)C(C)(C)CCC2(C)C`, the inhibition at 1 µM under setting [1] is -2% and the inhibition at 1 µM under setting [2] amounted to 6%.

On to `Cc1cc2c(cc1Cc1ccc(C(=O)NCC(C)(c3ccccc3)c3ccccc3)o1)C(C)(C)CCC2(C)C`, for which the inhibition at 1 µM under setting [1] worked out at 16% and the inhibition at 1 µM under setting [2] came to 22%.

On to `Cc1cc2c(cc1Cc1ccc(C(=O)NCCc3ccc(O)c(O)c3)o1)C(C)(C)CCC2(C)C`, for which the inhibition at 1 µM under setting [1] was -10% and the inhibition at 1 µM under setting [2] is -3%.

With `COc1ccc(OC)c(C(O)C(C)NC(=O)c2ccc(Cc3cc4c(cc3C)C(C)(C)CCC4(C)C)o2)c1` (centres unmarked), the inhibition at 1 µM under setting [1] is -6% and the inhibition at 1 µM under setting [2] came out at 14%.

Consider `Cc1cc2c(cc1Cc1ccc(C(=O)N[C@@H](CO)Cc3c[nH]cn3)o1)C(C)(C)CCC2(C)C`, for which the inhibition at 1 µM reads like this: under setting [1], -17%; under setting [2], -27%.

As for `Cc1cc2c(cc1Cc1ccc(C(=O)N3CCc4cc(O)c(O)cc4C3C)o1)C(C)(C)CCC2(C)C` (centres unmarked), the inhibition at 1 µM was -13% under setting [1] and -5% under setting [2].

Take `Cc1cc2c(cc1Cc1ccc(C(=O)NC(CO)[C@H](O)c3ccc([N+](=O)[O-])cc3)o1)C(C)(C)CCC2(C)C` (some centres unmarked): the inhibition at 1 µM reads like this: under setting [1], -10%; under setting [2], -15%.

For the molecule `Cc1cc2c(cc1Cc1ccc(C(=O)N(C)C(C)C(O)c3ccc(O)cc3)o1)C(C)(C)CCC2(C)C` (centres unmarked), the inhibition at 1 µM under setting [1] was -10% and the inhibition at 1 µM under setting [2] is -13%.
